# In patent US12617790B2, “Mitragynine analogs and uses thereof” (Memorial Sloan-Kettering Cancer Center, priority 2015, dated 2026):
# Read-outs that look alike come from different tables or passages of the source.
# Columns and labels:
# [1] = target: T1, DOR-1 (Mus musculus, UniProt P32300); assay: Competition binding against 125I-IBNtxA in DOR-1/CHO membranes
# T1 construct: expressed in transfected cells; host or cells: CHO
# [2] = target: T1, DOR-1; assay: [35S]GTPγS functional assay, DOR-1 transfected cell membranes; type: biochemical; conditions: for IC50: antagonism of 100 nM DPDPE, read-out: DOR-1 IC50
# [3] = target: T2, KOR-1 (Mus musculus, UniProt P33534); assay: Competition binding against 125I-IBNtxA in KOR-1/CHO membranes; conditions: 125I-IBNtxA (0.1 nM), CHO membranes, cloned mouse receptor; read-out: Affinity (Ki nM) KOR-1
# T2 construct: expressed in transfected cells; host or cells: CHO
# [4] = target: T3, MOR-1 (Mus musculus, UniProt P42866); assay: Competition binding against 125I-IBNtxA in MOR-1/CHO membranes
# T3 construct: expressed in transfected cells; host or cells: CHO
# [5] = test system: CD1 mice; assay: Radiant heat tail flick analgesia, sc, CD1 mice; type: in vivo; conditions: Mus musculus, 0.25 h, ED50, cumulative dose-response, tail flick 15 min after sc dose
# [6] = target: T3, MOR-1; assay: [35S]GTPγS functional assay, MOR-1 transfected cell membranes; type: biochemical; parameters: Emax: dose or concentration left out as unconfirmed; conditions: for EC50: agonist stimulation of [35S]GTPγS binding, read-out: MOR-1 EC50; for Emax: read-out: MOR-1 Emax (%)
# [7] = target: T2, KOR-1; assay: [35S]GTPγS functional assay, KOR-1 transfected cell membranes; type: biochemical
# [8] = 125I-IBNtxA (0.1 nM), CHO membranes, cloned mouse receptor, read-out: Affinity (Ki nM) DOR-1
# [9] = agonist stimulation of [35S]GTPγS binding
Compound,"Ki [1, 8]",Ki [3],Ki [4],further results
"Oc1ccc2c3c1O[C@H]1c4[nH]c5ccccc5c4C[C@@]4(O)[C@@H](C2)N(CC2CC2)CC[C@]314 [NTI, Naltrindole, reference compound]",,,,Ki [1]: 0.46 nM; IC50 [2]: 0.72 nM
"CC[C@@H]1CN2CC[C@@]3(C(=O)c4c(OC)cccc4N3C)C2C[C@@H]1/C(=C\OC)C(=O)OC (stereo partly drawn) [VM1503, (E)-methyl 2-((1'S,6'S,7'S)-6′-ethyl-4-methoxy-1-methyl-3-oxo-3′,5′,6′,7′,8′,8a′-hexahydro-2′H-spiro[indoline-2,1′-indolizine]-7′-yl)-3-methoxyacrylate]",> 1000 nM,> 1000 nM,375 nM,
"CC[C@@H]1CN2CC[C@@]3(C(=O)c4c(OC)cccc4N3Cc3ccccc3)C2C[C@@H]1/C(=C\OC)C(=O)OC (stereo partly drawn) [VM1505, (E)-methyl 2-((1'S,6'S,7'S)-1-benzyl-6′-ethyl-4-methoxy-3-oxo-3′,5′,6′,7′,8′,8a′-hexahydro-2′H-spiro[indoline-2,1′-indolizine]-7′-yl)-3-methoxyacrylate]",258 nM,136 nM,249 nM,
"CC[C@@H]1CN2CC[C@]3(Nc4cccc(O)c4C3=O)C2C[C@@H]1/C(=C\OC)C(=O)OC (stereo partly drawn) [VM1507, (E)-methyl 2-((1'S,6'S,7'S)-6′-ethyl-4-hydroxy-3-oxo-3′,5′,6′,7′,8′,8a′-hexahydro-2′H-spiro[indoline-2,1′-indolizine]-7′-yl)-3-methoxyacrylate]",6.1 nM,170 nM,1.4 nM,ED50 [5]: 0.18 mg/kg; EC50 [6]: 2 nM; Emax [6]: 124%; IC50 [2]: 293 nM
"CC[C@@H]1CN2CC[C@]3(Nc4cccc(OC(C)=O)c4C3=O)C2C[C@@H]1/C(=C\OC)C(=O)OC (stereo partly drawn) [VM1510, (E)-methyl 2-((1'S,6'S,7'S)-4-acetoxy-6′-ethyl-3-oxo-3′,5′,6′,7′,8′,8a′-hexahydro-2′H-spiro[indoline-2,1′-indolizine]-7′-yl)-3-methoxyacrylate]",20 nM,31 nM,2.5 nM,ED50 [5]: 0.38 mg/kg; EC50 [6]: 3.9 nM; Emax [6]: 120%
"CC[C@@H]1CN2CCC3(Nc4c(-c5ccoc5)ccc(OC)c4C3=O)C2C[C@@H]1/C(=C\OC)C(=O)OC (stereo partly drawn) [VM1514, Methyl (E)-2-((6'S,7'S)-6′-ethyl-7-(furan-3-yl)-4-methoxy-3-oxo-2′,3′,6′,7′,8′,8a′-hexahydro-5′H-spiro[indoline-2,1′-indolizin]-7′-yl)-3-methoxyacrylate]",40 nM,119 nM,41 nM,"EC50 [7, 9]: 40 nM; EC50 [6]: > 1000 nM; EC50 [2, 9]: 244 nM"
"CC[C@@H]1CN2CCC3(Nc4ccc(Cl)c(OC)c4C3=O)C2C[C@@H]1/C(=C\OC)C(=O)OC (stereo partly drawn) [VM1516, Methyl (E)-2-((6'S,7'S)-5-chloro-6′-ethyl-4-methoxy-3-oxo-2′,3′,6′,7′,8′,8a′-hexahydro-5′H-spiro[indoline-2,1′-indolizin]-7′-yl)-3-methoxyacrylate]",2.1 nM,12 nM,0.41 nM,
"CC[C@@H]1CN2CCc3c([nH]c4ccc(Br)c(OC)c34)C2C[C@@H]1/C(=C\OC)C(=O)OC (stereo partly drawn) [VM1517, Methyl (E)-2-((2S,3S)-9-bromo-3-ethyl-8-methoxy-1,2,3,4,6,7,12,12b-octahydroindolo[2,3-a]quinolizin-2-yl)-3-methoxyacrylate]",847 nM,195 nM,104 nM,
"CC[C@@H]1CN2CCc3c([nH]c4ccc(-c5ccoc5)c(OC)c34)C2C[C@@H]1/C(=C\OC)C(=O)OC (stereo partly drawn) [VM1519, Methyl (E)-2-((2S,3S)-3-ethyl-9-(furan-3-yl)-8-methoxy-1,2,3,4,6,7,12,12b-octahydroindolo[2,3-a]quinolizin-2-yl)-3-methoxyacrylate]",653 nM,129 nM,281 nM,
"CC[C@@H]1CN2CCc3c([nH]c4c(-c5ccoc5)ccc(OC)c34)C2C[C@@H]1/C(=C\OC)C(=O)OC (stereo partly drawn) [VM1520, Methyl (E)-2-((2S,3S)-3-ethyl-11-(furan-3-yl)-8-methoxy-1,2,3,4,6,7,12,12b-octahydroindolo[2,3-a]quinolizin-2-yl)-3-methoxyacrylate]",617 nM,185 nM,278 nM,
"CC[C@@H]1CN2CCc3c([nH]c4ccc(-c5ccccc5)c(OC)c34)C2C[C@@H]1/C(=C\OC)C(=O)OC (stereo partly drawn) [VM1521, Methyl (E)-2-((2S,3S)-3-ethyl-9-(phenyl)-8-methoxy-1,2,3,4,6,7,12,12b-octahydroindolo[2,3-a]quinolizin-2-yl)-3-methoxyacrylate]",> 1000 nM,204 nM,364 nM,
"CC[C@@H]1CN2CC[C@@]3(O)C(=Nc4ccc(-c5ccoc5)c(OC)c43)C2C[C@@H]1/C(=C\OC)C(=O)OC (stereo partly drawn) [VM1523, Methyl (E)-2-((2S,3S,7aS)-3-ethyl-9-(furan-3-yl)-7a-hydroxy-8-methoxy-1,2,3,4,6,7,7a,12b-octahydroindolo[2,3-a]quinolizin-2-yl)-3-methoxyacrylate]",109 nM,36 nM,36 nM,
"CC[C@@H]1CN2CC[C@@]3(O)C(=Nc4c(-c5ccoc5)ccc(OC)c43)C2C[C@@H]1/C(=C\OC)C(=O)OC (stereo partly drawn) [VM1524, Methyl (E)-2-((2S,3S,7aS)-3-ethyl-11-(furan-3-yl)-7a-hydroxy-8-methoxy-1,2,3,4,6,7,7a,12b-octahydroindolo[2,3-a]quinolizin-2-yl)-3-methoxyacrylate]",> 1000 nM,338 nM,117 nM,
"CC[C@@H]1CN2CC[C@@]3(N4CCCCC4)C(=Nc4cccc(OC)c43)[C@@H]2C[C@@H]1/C(=C\OC)C(=O)OC [VM1526, Methyl (E)-2-((2S,3S,7aS,12bS)-3-ethyl-8-methoxy-7a-(piperidin-1-yl)-1,2,3,4,6,7,7a,12b-octahydroindolo[2,3-a]quinolizin-2-yl)-3-methoxyacrylate]",369 nM,72 nM,247 nM,
"COC(=O)CC1CCN2CC[C@@]3(O)C(=Nc4cccc(OC)c43)C2C1 (stereo partly drawn) [VM1531, Methyl 2-((7aS)-7a-hydroxy-8-methoxy-1,2,3,4,6,7,7a,12b-octahydroindolo[2,3-a]quinolizin-2-yl)acetate]",> 1000 nM,> 1000 nM,> 1000 nM,
"CC[C@@H]1CN2CCc3c(n(Cc4ccccc4)c4cccc(OC)c34)[C@@H]2C[C@@H]1/C(=C\OC)C(=O)OC [VM1533, Methyl (E)-2-((2S,3S,12bS)-12-benzyl-3-ethyl-8-methoxy-1,2,3,4,6,7,12,12b-octahydroindolo[2,3-a]quinolizin-2-yl)-3-methoxyacrylate]",> 1000 nM,395 nM,93 nM,
"CC[C@@H]1CN2CCc3c([nH]c4cccc(OC)c34)[C@@H]2C[C@@H]1/C(=C\OC)CO [VM1534, (E)-2-((2S,3S,12bS)-3-ethyl-8-methoxy-1,2,3,4,6,7,12,12b-octahydroindolo[2,3-a]quinolizin-2-yl)-3-methoxyprop-2-en-1-ol]",,,> 1000 nM,
"C=C(COC)[C@H]1C[C@H]2c3[nH]c4cccc(OC)c4c3CCN2C[C@H]1CC [VM1535, (2S,3S,12bS)-3-ethyl-8-methoxy-2-(3-methoxyprop-1-en-2-yl)-1,2,3,4,6,7,12,12b-octahydroindolo[2,3-a]quinolizine]",,,> 1000 nM,
"CC[C@@H]1CN2CCc3c([nH]c4cccc(OC)c34)[C@@H]2C[C@@H]1[C@@H](C)COC [VM1536, (2S,3S,12bS)-3-ethyl-8-methoxy-2-((R)-1-methoxypropan-2-yl)-1,2,3,4,6,7,12,12b-octahydroindolo[2,3-a]quinolizine]",,,> 1000 nM,
"CC[C@@H]1CN2CC[C@@]3(OC)C(=Nc4cccc(OC)c43)[C@@H]2C[C@@H]1/C(=C\OC)C(=O)OC [VM1537, Methyl (E)-2-((2S,3S,7aS,12bS)-3-ethyl-7a,8-dimethoxy-1,2,3,4,6,7,7a,12b-octahydroindolo[2,3-a]quinolizin-2-yl)-3-methoxyacrylate]",997 nM,90 nM,190 nM,
CC[C@@H]1CN2CCc3c([nH]c4cccc(-c5ccoc5)c34)[C@@H]2C[C@@H]1/C(=C\OC)C(=O)OC [VM1539],332 nM,14 nM,,"Ki ([4]; read-out: Affinity (Ki nM) MOR-1, 125I-IBNtxA (0.1 nM), CHO membranes, cloned mouse receptor): 52 nM"
"CC[C@@H]1CN2CCc3c(n(C)c4cccc(OC)c34)[C@@H]2C[C@@H]1/C(=C\OC)C(=O)OC [VM1541, Methyl (E)-2-((2S,3S,12bS)-3-ethyl-8-methoxy-12-methyl-1,2,3,4,6,7,12,12b-octahydroindolo[2,3-a]quinolizin-2-yl)-3-methoxyacrylate]",> 1000 nM,143 nM,163 nM,
"CC[C@@H]1CN2CCC3c4c(cccc4OC)NC3[C@@H]2C[C@@H]1/C(=C\OC)C(=O)OC (stereo partly drawn) [VM1542, Methyl (E)-2-((2S,3S,12bS)-3-ethyl-8-methoxy-1,2,3,4,6,7,7a,12,12a,12b-decahydroindolo[2,3-a]quinolizin-2-yl)-3-methoxyacrylate]",374 nM,329 nM,116 nM,
"Oc1ccc2c3c1O[C@H]1c4[nH]c5c(c4C[C@@]4(O)[C@@H](C2)N(CC2CC2)CC[C@]314)C[C@@]1(O)[C@H]2Cc3ccc(O)c4c3[C@@]1(CCN2CC1CC1)[C@H]5O4 [norBNI, norbinaltorphimine, reference compound]",,0.23 nM,,"IC50 ([7]; antagonism of 100 nM U50,488H, read-out: KOR-1 IC50): 2.9 nM"
